In PMC11397358, “Cytotoxic Activity of Novel GnRH Analogs Conjugated with Mitoxantrone in Ovarian Cancer Cells” (Molecules, 2024):

Tested on: SKOV-3 cells
Assay: Confocal microscopy of intracellular mitoxantrone fluorescence, quantified with Image J
Type: cell-based, human
Conditions: 6 h; for localization of mitoxantrone fluorescence, in words: 1 μM, Hoechst nuclear stain; for effect of cisplatin on intracellular accumulation of mitoxantrone, in words: 1 μΜ, cisplatin 30 μg/mL for 1 h before treatment
Source text: To determine the accumulation of mitoxantrone within the SKOV-3 cells, we used confocal microscopy, exploiting the ability of mitoxantrone to fluoresce. Specifically, the excitation maxima of mitoxantrone are at 610 and 660 nm, whereas its emission maximum is at 685 nm. To stain the nuclei, we used the Hoechst dye. […] In contrast, the fluorescence signal was absent in untreated cells.
(§1) Figure 9 Confocal microscopy images of SKOV-3 cells treated with or without the GnRH-mitoxantrone conjugates, Con-3, Con-7 or mitoxantrone at a concentration of 1 μΜ for 6 h at 37 °C. At the end of the incubation, the cell nuclei were stained with the DNA-staining Hoechst 33342 dye and confocal fluorescent images were obtained after sequential excitation at 350 nm (for the Hoechst dye) and 638 nm (for the mitoxantrone). The emission filters of 461 nm and 650 nm–700 nm were used for collecting blue (Hoechst dye) and red (mitoxantrone) signals in separate channels. The left images show the nuclei staining with Hoechst dye (blue), whereas the middle ones depict the mitoxantrone fluorescence (red). The right images were created by merging the […] and middle ones and depict the localization of mitoxantrone (red) in both the cytoplasm and the nuclei. The figures are shown from a representative experiment performed three times with similar results.
We hypothesized that the GnRH-conjugated mitoxantrone of Con-3 and Con-7 entered the SKOV-3 cells after the reduction in the disulfide bond linking the GnRH analogs with mitoxantrone and subsequent release of the latter from the conjugates. This chemical reaction could be accomplished by the thioredoxin system, which is overexpressed in cancer cells and reduces the disulfide bonds of proteins and peptides. To verify this hypothesis, we incubated the SKOV-3 cells with cisplatin at a concentration of 30 μg/mL for 1 h before treating them with Con-3 or Con-7 conjugates. Cisplatin is a potent inhibitor of the thioredoxin system.
as §1, with “Figure 10” for “Figure 9”, “with” for “with or without”, “conjugates, Con-3 or” for “conjugates, Con-3,”, “Con-7 (1” for “Con-7 or mitoxantrone at a concentration of 1”, “6 h)” for “6 h”, “37 °C, in the presence or absence of cisplatin. Cisplatin was added to the cells 1 h before their incubation with the GnRH-mitoxantrone conjugates.” for “37 °C.”
Figure 11 Confocal microscopy images of SKOV-3 cells treated with mitoxantrone (1 μΜ for 6 h) at 37 °C, in the presence or absence of cisplatin. Cisplatin was added to the cells 1 h before their incubation with mitoxantrone. At the end of the incubation, the cell nuclei were stained with the DNA-staining Hoechst 33342 dye and confocal fluorescent images were obtained after sequential excitation at 350 nm (for the Hoechst dye) and 638 nm (for the mitoxantrone). The emission filters of 461 nm and 650 nm–700 nm were used for collecting blue (Hoechst dye) and red (mitoxantrone) signals in separate channels. The left images show the nuclei staining with Hoechst dye (blue), whereas the middle ones depict the mitoxantrone fluorescence (red). […]

Structure (SMILES) | localization of mitoxantrone fluorescence, in words | effect of cisplatin on intracellular accumulation of mitoxantrone, in words
CCNC(=O)[C@@H]1CCCN1C(=O)[C@H](CCCNC(=N)N)NC(=O)[C@H](CC(C)C)NC(=O)[C@@H](CSSCCC(=O)OCCNCCNc1ccc(NCCNCCO)c2c1C(=O)c1c(O)ccc(O)c1C2=O)NC(=O)[C@H](Cc1ccc(O)cc1)NC(=O)[C@H](CO)NC(=O)[C@H](Cc1c[nH]c2ccccc12)NC(=O)[C@H](Cc1c[nH]cn1)NC(=O)[C@@H]1CCC(=O)N1 [Con-3] | detected in both the cytoplasm and nucleus | abolished the accumulation of mitoxantrone
O=C1c2c(O)ccc(O)c2C(=O)c2c(NCCNCCO)ccc(NCCNCCO)c21 [mitoxantrone] | detected in both the cytoplasm and nucleus | did not affect the intracellular accumulation
CCNC(=O)[C@@H]1CCCN1C(=O)[C@H](CCCNC(=N)N)NC(=O)[C@H](CC(C)C)NC(=O)[C@@H](CCCCNC(=O)CCCCCNC(=O)CCSSCC(=O)OCCNCCNc1ccc(NCCNCCO)c2c1C(=O)c1c(O)ccc(O)c1C2=O)NC(=O)[C@H](Cc1ccc(O)cc1)NC(=O)[C@H](CO)NC(=O)[C@H](Cc1c[nH]c2ccccc12)NC(=O)[C@H](Cc1c[nH]cn1)NC(=O)[C@@H]1CCC(=O)N1 [Con-7] | detected in both the cytoplasm and nucleus | abolished the accumulation of mitoxantrone
